Values of other authors as cited in patent publication US20230286919A1, “ISOQUINOLINE DERIVATIVES FOR USE IN THERAPY” (Vestlandets Innovasjonsselskap AS, priority 2020, published 2023).

Test system: STAT1 and STAT5
Conditions: cited from earlier work

## Cc1ccc(S(=O)(=O)OCC(=O)Nc2ccc(C(=O)O)c(O)c2)cc1 [S3I-201]
  Activity towards STAT1 and STAT5: low activity
